Source: patent US11453632B2, “1-phenyl-2-phenylethane derivative” (KAO CORPORATION, priority 2018, dated 2022)

What was measured:
[1] = tested on: back skin browning induced by testosterone; test: Effect on sebum secretion (back skin browning) in testosterone-treated rat; format: in vivo; settings: testosterone 3 mg/kg/day plus test substance, subcutaneous osmotic pump, 28 days
Source text: 12-week-old male Slc:SD (SPF) rats were obtained from Japan SLC, Inc. An acclimatization period was established for 1 week after receipt. During the acclimatization period, the rats were allowed to freely ingest a powder diet (AIN-93G). 2) Implantation of Osmotic Pump After body weight measurement, back hair was shaved under isoflurane (AbbVie GK) inhalation anesthesia, and carprofen was subcutaneously administered to the rats. Then, an incision of approximately 1 cm at the maximum was made on the cranial side in the back. An osmotic minipump Alzet (Muromachi Kikai Co., Ltd.) containing testosterone and compound 17-F or finasteride (Sigma-Aldrich Co. LLC) was subcutaneously implanted. From this osmotic pump, testosterone (3 mg/kg body weight/day) (Sigma-Aldrich Co. LLC) and compound 17-F (0.1 mg/body weight/day or 1 mg/kg body weight/day) or finasteride (0.1 mg/kg body weight/day or 1 mg/kg body weight/day) were continuously administered for 28 days. Since the implantation of the osmotic pump, the rats were allowed to freely ingest customized feed AIN-93G (Oriental Yeast Co., Ltd.) free from components derived from soybeans. 3) Photographing of Skin and Harvesting of Prostate After a lapse of 28 days, body weights were measured, and subsequently, the rats were euthanized by blood letting under isoflurane anesthesia. […] Wet weights were measured. […]

[2] = tested on: prostate of testosterone-induced prostatic hyperplasia rat; test: Efficacy on prostate in testosterone-induced prostatic hyperplasia rat; format: in vivo; settings: testosterone 3 mg/kg/day plus test substance 0.1 or 1 mg/kg body weight/day, subcutaneous osmotic pump, 28 days, vs testosterone alone
Source text: 12-week-old male Slc:SD (SPF) rats were obtained from Japan SLC, Inc. An acclimatization period was established for 1 week after receipt. During the acclimatization period, the rats were allowed to freely ingest a powder diet (AIN-93G).
2) Implantation of Osmotic Pump
After body weight measurement, back hair was shaved under isoflurane (AbbVie GK) inhalation anesthesia, and carprofen was subcutaneously administered to the rats. Then, an incision of approximately 1 cm at the maximum was made on the cranial side in the back. An osmotic minipump Alzet (Muromachi Kikai Co., Ltd.) containing testosterone and compound 17-F or finasteride (Sigma-Aldrich Co. LLC) was subcutaneously implanted. From this osmotic pump, testosterone (3 mg/kg body weight/day) (Sigma-Aldrich Co. LLC) and compound 17-F (0.1 mg/body weight/day or 1 mg/kg body weight/day) or finasteride (0.1 mg/kg body weight/day or 1 mg/kg body weight/day) were continuously administered for 28 days. Since the implantation of the osmotic pump, the rats were allowed to freely ingest customized feed AIN-93G (Oriental Yeast Co., Ltd.) free from components derived from soybeans.
3) Photographing of Skin and Harvesting of Prostate
After a lapse of 28 days, body weights were measured, and subsequently, the rats were euthanized by blood letting under isoflurane anesthesia. Back hair was shaved, followed by photographing. Then, the abdominal cavity was opened to harvest the prostate on the ventral side. Wet weights were measured.

| Structure (SMILES) | melting point [°C] | skin browning induced by testosterone (sebum secretion, FIG. 3) [1] | size of the prostate (visual, FIG. 1) [2] | weight of the prostate corrected with the body weight (FIG. 2) [2] |
| --- | --- | --- | --- | --- |
| Oc1ccc(CC(c2ccc(O)cc2)C2CCCCC2)cc1 (stereo not shown) [Compound 4, 4,4′-(1-cyclohexylethane-1,2-diyl)diphenol] | 74 to 76 |  |  |  |
| CC(C)(C)NC(=O)[C@H]1CC[C@H]2[C@@H]3CC[C@H]4NC(=O)C=C[C@]4(C)[C@H]3CC[C@]12C [finasteride, reference compound] |  | such an inhibitory effect was not confirmed | Concentration-dependent decrease in the size of the prostate | decreased to almost the same level as in the DMSO administration group |
